Literature values as cited in US20240350654A1, “NANOCARRIERS FOR TARGETED DELIVERY OF THERAPEUTICS” (Northwestern University, priority 2023, published 2024).

Settings: humans, approximation

total peak blood concentration of midostaurin and its active metabolites: 2.16 µg/mL
Compound: CO[C@@H]1[C@H](N(C)C(=O)c2ccccc2)C[C@H]2O[C@]1(C)n1c3ccccc3c3c4c(c5c6ccccc6n2c5c31)C(=O)NC4 [midostaurin]
